From PMC12188320 (2025)

Assays:
[1] = system: NRAS (RNA, G4) UGUGGGAGGGGCGGGUCUGGGUGC; assay: luminescence and absorbance titration; conditions: K+ (10 mM potassium phosphate, 100 mM KCl); RNase-free buffer; Ru-PIC 2 µM, NRAS 0-6 µM; negligible spectral change; no constant
[2] = system: NRAS (RNA, G4) UGUGGGAGGGGCGGGUCUGGGUGC; assay: CD melting; conditions: Li+ (10 mM LiCl, 100 mM lithium cacodylate); pH 7; NRAS 5 µM, Ru-PIC 2 equivalents (10 µM); no stabilization observed
[3] = system: CMYC (DNA, G4) TGGGGAGGGTGGGGAGGGTGGGGAAGG; assay: absorbance and luminescence titration; conditions: K+ (10 mM potassium phosphate, 100 mM KCl); Ru-PIC 10 µM, CMYC 0-30 µM; no constant
[4] = system: CMYC (DNA, G4) TGGGGAGGGTGGGGAGGGTGGGGAAGG; assay: CD melting; conditions: Li+ (10 mM LiCl, 100 mM lithium cacodylate; supplement: 90 mM LiCl, 10 mM cacodylate); pH 7; CMYC 5 µM, Ru-PIC 2 equivalents (10 µM)

binding [1]: weak
binding [2]: no
binding [3]: yes
ΔTm [4]: 9.1 ± 0.3 °C
SMILES: O=C(O)c1ccc(-c2nc3c4cccnc4c4ncccc4c3[nH]2)cc1.[Ru+2].c1ccc(-c2ccccn2)nc1.c1ccc(-c2ccccn2)nc1
